Data on four compounds can be found in patent US20070037837A1, “Quinazoline derivatives” (priority 2003, published 2007).

pIC50: −log10 of the molar value.

One test has as its system KB cells. Nature of the test: EGFR driven KB cell proliferation assay, Test (b). It counts as cell-based. The conditions noted are these: Homo sapiens, 96 h, EGF 1 ng/ml, 4 days, MTT. The protocol: This assay measures the ability of a test compound to inhibit the proliferation of KB cells (human naso-pharangeal carcinoma obtained from the American Type Culture Collection (ATCC).
KB cells (human naso-pharangeal carcinoma obtained from the ATCC were cultured in Dulbecco's modified Eagle's medium (DMEM) containing 10% foetal calf serum, 2 mM glutamine and non-essential amino acids at 37° C. in a 7.5% CO2 air incubator. Cells were harvested from the stock flasks using Trypsin/ethylaminediaminetetraacetic acid (EDTA). Cell density was measured using a haemocytometer and viability was calculated using trypan blue solution before being seeded at a density of 1.25×10^3 cells per well of a 96 well plate in DMEM containing 2.5% charcoal stripped serum, 1 mM glutamine and non-essential amino acids at 37° C. in 7.5% CO2 and allowed to settle for 4 hours.
Following adhesion to the plate, the cells are treated with or without EGF (final concentration of 1 ng/ml) and with or without compound at a range of concentrations in dimethylsulfoxide (DMSO) (0.1% final) before incubation for 4 days. Following the incubation period, cell numbers were determined by addition of 50 μl of 3-(4,5-Dimethylthiazol-2-yl)-2,5-diphenyltetrazolium bromide (MTT) (stock 5 mg/ml) for 2 hours. MTT solution was then tipped off, the plate gently tapped dry and the cells dissolved upon the addition of 100 μl of DMSO.
Absorbance of the solubilised cells was read at 540 nm using a Molecular Devices ThermoMax microplate reader. Inhibition of proliferation was expressed as an IC50 value. This was determined by calculation of the concentration of compound that was required to give 50% inhibition of proliferation. The range of proliferation was calculated from the positive (vehicle plus EGF) and negative (vehicle minus EGF) control values.

The next test has as its target T1, EGFR tyrosine kinase (Homo sapiens, UniProt P00533).
T1 construct: Recombinant intracellular fragments of EGFR, erbB2 and erbB4; made in house; host or cells: baculovirus/Sf21 insect cells (cleared lysate used)
Nature of the test: Protein tyrosine kinase phosphorylation assay, Test (a), EGFR. Type of test: biochemical. The conditions noted are these: recombinant intracellular fragment, ATP at Km; read-out: IC50 Test (a): Inhibition of EGFR tyrosine kinase protein phosphorylation. As for the experimental part:
(§1) This test measures the ability of a test compound to inhibit the phosphorylation of a tyrosine containing polypeptide substrate by EGFR and erbB2 tyrosine kinase enzyme.
(§2) Recombinant intracellular fragments of EGFR, erbB2 and erbB4 (accession numbers X00588, X03363 and L07868 respectively) were cloned and expressed in the baculovirus/Sf21 system. Lysates were prepared from these cells by treatment with ice-cold lysis buffer (20 mM N-2-hydroxyethylpiperizine-N′-2-ethanesulfonic acid (HEPES) pH 7.5, 150 mM NaCl, 10% glycerol, 1% Triton X-100, 1.5 mM MgCl2, 1 mM ethylene glycol-bis(β-aminoethyl ether) N′,N′,N′,N′-tetraacetic acid (EGTA), plus protease inhibitors and then cleared by centrifugation.
Constitutive kinase activity of the recombinant protein was determined by its ability to phosphorylate a synthetic peptide (made up of a random co-polymer of Glutamic Acid, Alanine and Tyrosine in the ratio of 6:3:1). Specifically, Maxisorb™ 96-well immunoplates were coated with synthetic peptide (0.2 μg of peptide in a 100 μl phosphate buffered saline (PBS) solution and incubated at 4° C. overnight). Plates were washed in PBS-T (phosphate buffered saline with 0.5% Tween 20) then in 50 mM HEPES pH 7.4 at room temperature to remove any excess unbound synthetic peptide. […]
The immobilised phospho-peptide product of the reaction was detected by immunological methods. […] After further washing, HRP activity in each well of the plate was measured colorimetrically using 22′-Azino-di-[3-ethylbenzthiazoline sulfonate (6)] diammonium salt crystals (ABTS™ from Roche) as a substrate.
(§3) Quantification of colour development and thus enzyme activity was achieved by the measurement of absorbance at 405 nm on a Molecular Devices ThermoMax microplate reader. Kinase inhibition for a given compound was expressed as an IC50 value. […] The range of phosphorylation was calculated from the positive (vehicle plus ATP) and negative (vehicle minus ATP) control values.

Another test concerns the target T2, erbB2 tyrosine kinase (Homo sapiens, UniProt P04626).
T2 construct: Recombinant intracellular fragments of EGFR, erbB2 and erbB4; made in house; host or cells: baculovirus/Sf21 insect cells (cleared lysate used)
Nature of the test: Protein tyrosine kinase phosphorylation assay, Test (a), erbB2. It counts as biochemical. The conditions noted are these: recombinant intracellular fragment, ATP at Km; read-out: IC50 Test (a): Inhibition of erbB2 tyrosine kinase protein phosphorylation. As for the experimental part:
as §1, §2
Constitutive kinase activity of the recombinant protein was determined by its ability to phosphorylate a synthetic peptide (made up of a random co-polymer of Glutamic Acid, Alanine and Tyrosine in the ratio of 6:3:1). Specifically, Maxisorb™ 96-well immunoplates were coated with synthetic peptide (0.2 μg of peptide in a 100 μl phosphate buffered saline (PBS) solution and incubated at 4° C. overnight). Plates were washed in PBS-T (phosphate buffered saline with 0.5% Tween 20) then in 50 mM HEPES pH 7.4 at room temperature to remove any excess unbound synthetic peptide. EGFR, ErbB2 or ErbB4 tyrosine kinase activity was assessed by incubation in peptide coated plates for 20 minutes at 22° C. in 100 mM HEPES pH 7.4, adenosine trisphosphate (ATP) at Km concentration for the respective enzyme, 10 mM MnCl2, 0.1 mM Na3VO4, 0.2 mM DL-dithiothreitol (DTT), 0.1% Triton X-100 with test compound in DMSO (final concentration of 2.5%). Reactions were terminated by the removal of the liquid components of the assay followed by washing of the plates with PBS-T.
The immobilised phospho-peptide product of the reaction was detected by immunological methods. Firstly, plates were incubated for 90 minutes at room temperature with anti-phosphotyrosine primary antibodies that were raised in the mouse (4G10 from Upstate Biotechnology). Following extensive washing, plates were treated with Horseradish Peroxidase (HRP) conjugated sheep anti-mouse secondary antibody (NXA931 from Amersham) for 60 minutes at room temperature. After further washing, HRP activity in each well of the plate was measured colorimetrically using 22′-Azino-di-[3-ethylbenzthiazoline sulfonate (6)] diammonium salt crystals (ABTS™ from Roche) as a substrate.
as §3

The target of a further test is T3, erbB2 (Homo sapiens, UniProt P04626).
T3 construct: to give a cell line that overexpresses full length wild type erbB2 protein; expressed in transfected cells; host or cells: MCF7 (breast carcinoma) derived 'Clone 24' cells
T3 sequence (P04626 23-1255): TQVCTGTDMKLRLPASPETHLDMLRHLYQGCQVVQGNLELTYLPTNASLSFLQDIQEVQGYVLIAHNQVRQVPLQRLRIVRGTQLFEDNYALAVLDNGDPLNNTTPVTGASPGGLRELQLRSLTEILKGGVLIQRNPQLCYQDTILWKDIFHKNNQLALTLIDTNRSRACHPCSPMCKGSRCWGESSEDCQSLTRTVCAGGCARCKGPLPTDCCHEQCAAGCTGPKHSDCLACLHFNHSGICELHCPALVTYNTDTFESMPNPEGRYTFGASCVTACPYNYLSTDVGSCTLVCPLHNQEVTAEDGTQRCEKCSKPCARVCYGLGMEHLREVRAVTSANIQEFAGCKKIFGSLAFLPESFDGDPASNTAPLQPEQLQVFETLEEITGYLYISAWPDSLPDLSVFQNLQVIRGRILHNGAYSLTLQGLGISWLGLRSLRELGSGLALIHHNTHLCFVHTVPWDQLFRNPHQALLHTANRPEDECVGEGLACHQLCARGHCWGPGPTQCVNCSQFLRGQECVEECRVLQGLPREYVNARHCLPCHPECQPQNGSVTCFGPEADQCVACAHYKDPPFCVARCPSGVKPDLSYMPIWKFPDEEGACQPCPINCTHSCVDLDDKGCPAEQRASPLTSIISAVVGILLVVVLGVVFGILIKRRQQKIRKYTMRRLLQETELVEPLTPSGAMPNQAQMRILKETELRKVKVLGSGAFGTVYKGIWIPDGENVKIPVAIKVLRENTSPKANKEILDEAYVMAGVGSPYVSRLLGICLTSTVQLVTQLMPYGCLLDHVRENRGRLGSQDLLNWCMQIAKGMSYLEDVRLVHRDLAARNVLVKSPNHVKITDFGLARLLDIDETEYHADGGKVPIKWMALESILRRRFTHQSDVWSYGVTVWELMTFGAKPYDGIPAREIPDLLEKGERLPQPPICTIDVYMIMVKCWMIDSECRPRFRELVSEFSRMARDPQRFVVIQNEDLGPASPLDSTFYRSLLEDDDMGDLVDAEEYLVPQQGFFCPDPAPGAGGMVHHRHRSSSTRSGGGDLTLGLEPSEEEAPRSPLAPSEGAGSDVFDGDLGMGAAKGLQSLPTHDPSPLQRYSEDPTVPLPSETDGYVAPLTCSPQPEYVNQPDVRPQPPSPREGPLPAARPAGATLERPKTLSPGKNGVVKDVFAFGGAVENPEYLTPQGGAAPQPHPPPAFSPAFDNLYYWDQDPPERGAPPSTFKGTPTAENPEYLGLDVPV
Nature of the test: Clone 24 phospho-erbB2 cell assay, Test (e). The conditions noted are these: MCF7 derived Clone 24 cells, 4 hrs; read-out: IC50 Test (e): Inhibition of erbB2 tyrosine kinase protein phosphorylation. Type of test: cell-based. The protocol:
This immunofluorescence end point assay measures the ability of a test compound to inhibit the phosphorylation of erbB2 in a MCF7 (breast carcinoma) derived cell line which was generated by transfecting MCF7 cells with the full length erbB2 gene using standard methods to give a cell line that overexpresses full length wild type erbB2 protein (hereinafter ‘Clone 24’ cells).
Clone 24 cells were cultured in Growth Medium (phenol red free Dulbecco's modified Eagle's medium (DMEM) containing 10% foetal bovine serum, 2 mM glutamine and 1.2 mg/ml G418) in a 7.5% CO2 air incubator at 37° C. Cells were harvested from T75 stock flasks by washing once in PBS (phosphate buffered saline, pH 7.4, Gibco No. 10010-015) and harvested using 2 mls of Trypsin (1.25 mg/ml)/ethylaminediaminetetraacetic acid (EDTA) (0.8 mg/ml) solution. The cells were resuspended in Growth Medium. Cell density was measured using a haemocytometer and viability was calculated using Trypan Blue solution before being further diluted in Growth Medium and seeded at a density of 1×10^4 cells per well (in 100 ul) into clear bottomed 96 well plates (Packard, No. 6005182).
3 days later, Growth Medium was removed from the wells and replaced with 100 ul Assay Medium (phenol red free DMEM, 2 mM glutamine, 1.2 mg/ml G418) either with or without erbB inhibitor compound. Plates were returned to the incubator for 4 hrs and then 20 μl of 20% formaldehyde solution in PBS was added to each well and the plate was left at room temperature for 30 minutes. This fixative solution was removed with a multichannel pipette, 100 μl of PBS was added to each well and then removed with a multichannel pipette and then 50 μl PBS was added to each well. Plates were then sealed and stored for up to 2 weeks at 4° C.
Immunostaining was performed at room temperature. Wells were washed once with 200 μl PBS/Tween 20 (made by adding 1 sachet of PBS/Tween dry powder (Sigma, No. P3563) to 1 L of double distilled H2O) using a plate washer then 200 μl Blocking Solution (5% Marvel dried skimmed milk (Nestle) in PBS/Tween 20) was added and incubated for 10 minutes. Blocking Solution was removed using a plate washer and 200 μl of 0.5% Triton X-100/PBS was added to permeabalise the cells. After 10 minutes, the plate was washed with 200 μl PBS/Tween 20 and then 200 μl Blocking Solution was added once again and incubated for 15 minutes. […]
The Fluorescence signal is each well was measured using an Acumen Explorer Instrument (Acumen Bioscience Ltd.), a plate reader that can be used to rapidly quantitate features of images generated by laser-scanning. […]

T1 sequence (P00533 669-1210 limits assumed): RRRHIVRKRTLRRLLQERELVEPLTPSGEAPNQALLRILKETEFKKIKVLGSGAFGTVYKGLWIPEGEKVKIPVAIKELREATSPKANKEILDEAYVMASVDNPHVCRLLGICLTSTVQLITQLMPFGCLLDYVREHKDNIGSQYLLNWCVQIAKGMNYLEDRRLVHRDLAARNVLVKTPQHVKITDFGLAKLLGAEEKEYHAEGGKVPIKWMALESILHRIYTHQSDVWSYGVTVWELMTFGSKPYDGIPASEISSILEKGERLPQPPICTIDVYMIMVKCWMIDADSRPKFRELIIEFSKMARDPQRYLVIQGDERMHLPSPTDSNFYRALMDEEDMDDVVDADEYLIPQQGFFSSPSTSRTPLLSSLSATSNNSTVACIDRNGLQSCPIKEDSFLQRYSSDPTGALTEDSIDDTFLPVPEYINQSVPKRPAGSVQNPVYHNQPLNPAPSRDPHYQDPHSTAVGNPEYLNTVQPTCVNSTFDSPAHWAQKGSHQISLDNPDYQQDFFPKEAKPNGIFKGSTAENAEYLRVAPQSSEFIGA
T2 sequence (P04626 676-1255 limits assumed): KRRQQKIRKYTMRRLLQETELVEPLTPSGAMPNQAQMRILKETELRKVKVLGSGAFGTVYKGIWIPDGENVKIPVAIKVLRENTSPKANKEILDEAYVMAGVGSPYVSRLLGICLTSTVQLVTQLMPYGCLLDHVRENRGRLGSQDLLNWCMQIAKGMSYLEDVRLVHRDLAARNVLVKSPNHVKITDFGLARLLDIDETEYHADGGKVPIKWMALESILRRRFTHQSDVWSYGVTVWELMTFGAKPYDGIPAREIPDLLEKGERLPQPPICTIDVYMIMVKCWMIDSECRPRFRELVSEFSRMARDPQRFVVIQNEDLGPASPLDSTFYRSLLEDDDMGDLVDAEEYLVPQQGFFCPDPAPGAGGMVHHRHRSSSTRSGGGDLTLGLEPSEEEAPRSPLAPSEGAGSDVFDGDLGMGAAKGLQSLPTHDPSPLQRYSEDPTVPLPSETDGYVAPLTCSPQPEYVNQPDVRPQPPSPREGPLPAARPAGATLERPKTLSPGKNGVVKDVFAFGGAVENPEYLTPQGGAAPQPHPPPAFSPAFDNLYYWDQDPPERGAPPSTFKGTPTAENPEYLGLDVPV

The term pIC50 denotes the IC50 on a negative log10 scale, so that one unit is a factor of ten. On to `COC(=O)N1CCC(Oc2cc3c(Nc4cccc(Cl)c4F)ncnc3cc2OC)CC1` [Example 1, 4-(3-Chloro-2-fluoroanilino)-7-methoxy-6-{[1-(methoxycarbonyl)piperidin-4-yl]oxy}quinazoline], for which the pIC50 in the test on KB cells is 7.46; on EGFR tyrosine kinase, 9.00; at erbB2 tyrosine kinase, 7.42; on erbB2, 8.05.

Consider `COc1cc2ncnc(Nc3cccc(Cl)c3F)c2cc1OC1CCN(C(=O)OCCN2CCCCC2)CC1` [Example 6, 4-(3-Chloro-2-fluoroanilino)-7-methoxy-6-{[1-{2-(piperidin-1-yl)ethoxycarbonyl}piperidin-4-yl]oxy}quinazoline], for which the pIC50 was 8.00 in the test on KB cells, 8.70 on erbB2 tyrosine kinase and 7.39 on erbB2.

With `COc1cc2ncnc(Nc3ccc(F)c(Cl)c3F)c2cc1OC1CCN(C(=O)OCCN2CCCC2)CC1` [Example 4, 4-(3-Chloro-2,4-difluoroanilino)-7-methoxy-6-{[1-{2-(pyrrolidin-1-yl)ethoxycarbonyl}piperidin-4-yl]oxy}quinazoline], the pIC50 in the test with KB cells was 7.82; at EGFR tyrosine kinase it was 8.70; on erbB2 tyrosine kinase, 8.70; at erbB2, 7.54.

Consider `COc1cc2ncnc(Nc3cccc(Cl)c3F)c2cc1OC1CCN(C(=O)OCCN2CCCC2)CC1` [Example 2, 4-(3-Chloro-2-fluoroanilino)-7-methoxy-6-{[1-{2-(pyrrolidin-1-yl)ethoxycarbonyl}piperidin-4-yl]oxy}quinazoline], for which the pIC50 in the test with KB cells was 8.05; on EGFR tyrosine kinase, 8.40; on erbB2 tyrosine kinase it was 8.00; at erbB2, 7.44.
